SMILES strings stand for the structures. Where two headings read alike, the source gives them in different places.

The results in this text go back to patent US7368477B2, “Benzofuranyl alkanamine derivatives and uses thereof” (Wyeth, priority 2005, dated 2008).

For data set [1], the target named is T1, human 5-hydroxytryptamine-2C (h5-HT2C) receptor (Homo sapiens, UniProt P28335).
T1 construct: expressed in transfected cells; host or cells: CHO (Chinese Hamster Ovary) cells; membrane preparation
T1 sequence (P28335 33-458): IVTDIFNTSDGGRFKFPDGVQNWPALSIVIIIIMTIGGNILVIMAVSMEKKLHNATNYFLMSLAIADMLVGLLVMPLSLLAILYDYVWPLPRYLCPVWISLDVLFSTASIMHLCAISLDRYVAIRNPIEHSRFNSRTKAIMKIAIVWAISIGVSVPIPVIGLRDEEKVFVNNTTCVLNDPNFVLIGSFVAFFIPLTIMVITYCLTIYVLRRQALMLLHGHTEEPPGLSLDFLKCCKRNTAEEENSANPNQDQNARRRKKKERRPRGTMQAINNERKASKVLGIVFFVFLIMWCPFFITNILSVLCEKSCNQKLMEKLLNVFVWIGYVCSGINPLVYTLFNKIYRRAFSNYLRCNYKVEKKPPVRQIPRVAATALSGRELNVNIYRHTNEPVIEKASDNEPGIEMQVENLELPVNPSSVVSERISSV
Nature of the data set: [125I]DOI binding to membranes of CHO cells expressing the human 5-HT2C receptor.

The next data set addresses T2, human 5-HT2C receptor (Homo sapiens, UniProt P28335).
T2 sequence (P28335 33-458): T1 sequence (P28335 33-458)
Nature of the data set: Calcium mobilization (FLIPR) in CHO cells stably expressing the human 5-HT2C receptor. The format is cell-based. The note with it: for Emax: CHO, read-out: 5-HT2C Function EMax (%); for EC50: calcium mobilization, h5-HT2C CHO cells, read-out: 5-HT2C Function EC50. (In general: A change in cytosolic calcium serves as a functional read-out for many receptors and channels.)

[2] abbreviates: read-out: 5-HT2C Binding Ki avg.

What is called Ki is a dissociation constant, usually derived from enzyme kinetics or from competition with a known ligand. As a reminder, the Emax is the size of the effect at its maximum, as opposed to the concentration needed. As usually defined, the EC50 is the concentration at which the effect is half-maximal. As a reminder, the melting point is the temperature, or range, at which the solid turns liquid. `I.NCc1cc2cc(Cl)cc(-c3ccccc3)c2o1` [Compound 1, [(5-chloro-7-phenyl-1-benzofuran-2-yl)methyl]amine]: the melting point was > 225 °C. For the same compound, the Ki in data set [1] (setting [2]) fell in the range of 10 to 100 nM. Also, at human 5-HT2C receptor, the Emax was found to be 70% and the concentration giving a half-maximal response (EC50) lay in the range of 200 to 2000 nM.
With `NCc1cc2cc(Cl)cc(-c3ccccc3F)c2o1` [Compound 2, {[5-chloro-7-(2-fluorophenyl)-1-benzofuran-2-yl]methyl}amine], the Ki in data set [1] (setting [2]) was in the range of 1 to 10 nM. Moreover, at human 5-HT2C receptor, the Emax was determined as 80% and the EC50 is 200 to 2000 nM.
For `NCc1cc2cc(Cl)cc(-c3ccccc3Cl)c2o1` [Compound 3, {[5-chloro-7-(2-chlorophenyl)-1-benzofuran-2-yl]methyl}amine], at human 5-HT2C receptor, the Emax was 100% and the EC50 was < 10 nM.
In the same order, the values of `Cc1ccccc1-c1cc(Cl)cc2cc(CN)oc12` [Compound 4, {[5-chloro-7-(2-methylphenyl)-1-benzofuran-2-yl]methyl}amine] are 90% and 10 to 200 nM.
Turning to `COc1ccccc1-c1cc(Cl)cc2cc(CN)oc12` [Compound 5, {[5-chloro-7-(2-methoxyphenyl)-1-benzofuran-2-yl]methyl}amine], the Ki in data set [1] (setting [2]) was 1 to 10 nM. For the same compound, at human 5-HT2C receptor, the Emax worked out at 90% and the EC50 lay in the range of 10 to 200 nM.
Take `NCc1cc2cc(Cl)cc(-c3ccccc3C(F)(F)F)c2o1` [Compound 6, ({5-chloro-7-[2-(trifluoro methyl)phenyl]-1-benzofuran-2-yl}methyl)amine]: the melting point is 215 to 218 °C (dec.). Also, in data set [1] (setting [2]), the Ki lay in the range of 10 to 100 nM. Besides, on human 5-HT2C receptor, the Emax worked out at 90% and the EC50 fell in the range of 200 to 2000 nM.
In the case of `NCc1cc2cc(F)cc(-c3c(Cl)cccc3Cl)c2o1` [Compound 7, {[7-(2,6-dichlorophenyl)-5-fluoro-1-benzofuran-2-yl]methyl}amine], the Ki in data set [1] (setting [2]) was 0.01 to 1 nM. Besides, on human 5-HT2C receptor, the maximal response (Emax) was determined as 100% and the EC50 was < 10 nM.
In the same order, the values of `Cc1ccccc1-c1cc(F)cc2cc(CN)oc12` [Compound 8, {[5-fluoro-7-(2-methylphenyl)-1-benzofuran-2-yl]methyl}amine] are 1 to 10 nM, 90% and < 10 nM.
On to `NCc1cc2cc(F)cc(-c3ccc(Cl)cc3Cl)c2o1` [Compound 9, {[7-(2,4-dichlorophenyl)-5-fluoro-1-benzofuran-2-yl]methyl}amine], for which, in data set [1] (setting [2]), the Ki was 0.01 to 1 nM. In addition, at human 5-HT2C receptor, the maximal effect (Emax) is 90% and the EC50 is < 10 nM.
Turning to `COc1ccccc1-c1cc(F)cc2cc(CN)oc12` [Compound 10, 1-[5-fluoro-7-(2-methoxyphenyl)-1-benzofuran-2-yl]methanamine], the melting point lay within 128 to 130 °C. Also, the Ki in data set [1] (setting [2]) fell in the range of 1 to 10 nM. On human 5-HT2C receptor, the Emax was determined as 80% and the EC50 was in the range of 10 to 200 nM.
In the same order, the values of `NCc1cc2cc(F)cc(-c3cc(Cl)ccc3Cl)c2o1` [Compound 11, 1-[7-(2,5-dichlorophenyl)-5-fluoro-1-benzofuran-2-yl]methanamine] are 245 to 247 °C, 0.01 to 1 nM, 70% and < 10 nM.
In the same order, the values of `Cc1ccccc1-c1cccc2cc(CN)oc12` [Compound 12, 1-[7-(2-methylphenyl)-1-benzofuran-2-yl]methanamine] are 222 to 224 °C, 1 to 10 nM, 70% and < 10 nM.
The compound `Cc1cc(Cl)ccc1-c1cc(F)cc2cc(CN)oc12` [Compound 13, 1-[7-(4-chloro-2-methylphenyl)-5-fluoro-1-benzofuran-2-yl]methanamine] showed a melting point of 172 to 174 °C. For the same compound, the Ki in data set [1] (setting [2]) was in the range of 1 to 10 nM. Also, at human 5-HT2C receptor, the Emax came to 80% and the EC50 lay in the range of 10 to 200 nM.
In the same order, the values of `Cc1ccc(Cl)cc1-c1cc(F)cc2cc(CN)oc12` [Compound 14, 1-[7-(5-chloro-2-methylphenyl)-5-fluoro-1-benzofuran-2-yl]methanamine] are 208 to 210 °C, 1 to 10 nM, 80% and 10 to 200 nM.
In the same order, the values of `NCc1cc2cccc(-c3c(Cl)cccc3Cl)c2o1` [Compound 15, 1-[7-(2,6-dichlorophenyl)-1-benzofuran-2-yl]methanamine] are 260 to 262 °C, 0.01 to 1 nM, 90% and < 10 nM.
In the same order, the values of `NCc1cc2ccc(Cl)c(-c3ccccc3Cl)c2o1` [Compound 16, 1-[6-chloro-7-(2-chlorophenyl)-1-benzofuran-2-yl]methanamine] are 208 to 210 °C, 0.01 to 1 nM, 90% and < 10 nM.
As to `NCc1cc2ccc(F)c(-c3ccccc3Cl)c2o1` [Compound 17, 1-[7-(2-chlorophenyl)-6-fluoro-1-benzofuran-2-yl]methanamine], the melting point is > 250 °C.
On to `CSc1ccc2c(c1)C(N1CCN(C)CC1)Cc1ccccc1S2` (stereo not shown) [Methiothepin, reference compound], for which the Ki in data set [1] (reference compounds, [125I]DOI displacement, h5-HT2C CHO membranes, read-out: Ki (95% confidence interval)) turned out to be 4.6 nM.
For orientation: Kd means the constant that tells how readily two partners part at equilibrium. Regarding `COc1cc(CC(C)N)c(OC)cc1I` (stereo not shown) [[^125I] DOI, reference compound], the Kd in data set [1] (saturation binding with increasing concentrations of [125I]DOI, read-out: dissociation constant, KD) was 0.4 nM.
